Experiment [1] addresses T1, human VR1 (Homo sapiens, UniProt Q8NER1).
T1 construct: host or cells: cells that express human VR1 receptors (cell type not specified)
Put plainly: Determination of pA2 values against capsaicin stimulation (Ca2+ imaging, FLIPR TETRA, Schild analysis). The format is cell-based. The settings on record: against capsaicin agonist dose-response. The protocol: pA2 values of antagonists against the capsaicin agonist dose-response were determined using a Ca^2+ imaging assay with cells expressing high levels of human VR1 (for explanation of theory behind pA2 determinations, see A Pharmacological Primer: Theory, Applications, and Methods 2nd edition by Terry P. Kenakin, pp. 102-108, Academic Press, New York, 2006). Cells that express high levels of VR1 were obtained by generation of a cell line from […] with heterologous expression of VR1 under control of an inducible promoter. Specifically, cells expressing human VR1 under the control of the human cytomegalovirus immediate-early (CMV) promoter and two tetracycline operator 2 (TetO2) sites were made using the T-REx System (Invitrogen, Carlsbad, Calif., USA). Details and methods concerning this system are published (Hum. Gene Ther. 9, pp. 1939-1950, 1998; Annu. Rev. Microbiol. 48, pp. 345-369, 1994; Mol. Biol. 169, pp. 707-721, 1983). VR1 was subcloned into the T-REx System pcDNA5/TO vector (Invitrogen Cat# V1033-20) which was transfected into the T-REx System […] cell line (Invitrogen Cat# R710-07) from which a stable cell line was established which express VR1 after induction by exposure to tetracycline or doxycycline (Hum. Gene Ther. 9, pp. 1939-1950, 1998; instructions that come with purchase of products noted above). […]
For assay preparation, cells expressing human VR1 as described above were plated in 96-well plates (Becton Dickinson [BD] poly-D-lysine coated 96-well plates, cat#356692) at 55,000 cells per well in culture media (described above) that also contains 1 ug/ml doxycycline. […] Changes in the fluorescence signal (λex=470-495 nm, λem=515-575 nm) were monitored throughout the experiment before agonist addition and for at least 2 min after agonist addition (enough time for the fluorescence response to reach and then decline from the absolute maximum, agonist-induced signal attained). […]

The target of experiment [2] is T1, human VR1. The experiment is described as follows: Human VR1 antagonist assay (Ca2+ imaging assay using human VR1 highly expressing cells). The format is cell-based. The following applies: intracellular Ca2+ imaging (fura-2). The text has this:
VR1 antagonistic activity can be determined by the Ca^2+ imaging assay using human VR1 highly expressing cells. The cells that highly express human VR1 receptors are obtainable from several different conventional methods. The one standard method is cloning from human Dorsal Root Ganglion (DRG) or kidney according to the methods such as described in the journal article; Nature, 389, pp 816-824, 1997. Alternatively VR1 receptors highly expressing human keratinocytes are also known and published in the journal article (Biochemical and Biophysical Research Communications, 291, pp 124-129, 2002). […] Furthermore, the method to up regulate human VR1 gene, which is usually a silent gene or don't produce detectable level of VR1 receptors, is also available to obtain propriety cells. Such genetic modification method was described in detail; Nat. Biotechnol., 19, pp 440-445, 2001.
The cells that express human VR1 receptors were maintained in culture flask at 37° C. in an environment containing 5% CO2 until use in the assay. The intracellular Ca^2+ imaging assay to determine VR1 antagonistic activities were done by following procedures.
The culture medium was removed from the flask and fura-2/AM fluorescent calcium indicator was added to the flask at a concentration of 5 μM in the medium. The flask was placed in CO2 incubator and incubated for 1 hour. Then the cells expressing the human VR1 receptors were detached from the flask follow by washing with phosphate buffer saline, PBS(−) and re-suspended in assay buffer. The 80 μl of aliquot of cell suspension (3.75×10^5 cells/ml) was added to the assay plate and the cells were spun down by centrifuge (950 rpm, 20° C., 3 minutes).
Compounds of the examples were tested in the Human VR1 antagonist assay described above.
The capsaicin-induced changes in the intracellular calcium concentration were monitored using FDSS 6000 (Hamamatsu Photonics, Japan), a fluorometric imaging system. The cell suspension in Krebs-Ringer HEPES (KRH) buffer (115 mM NaCl, 5.4 mM KCl, 1 mM MgSO4, 1.8 mM CaCl2, 11 mM D-Glucose, 25 mM HEPES, 0.96 mM Na2HPO4, pH 7.3) were pre-incubated with varying concentrations of the test compounds or KRH buffer (buffer control) for 15 minutes at room temperature under the dark condition. Then capsaicin solution, which gives 300 nM in assay mixture, was automatically added to the assay plate by the FDSS 6000.
The Acid-induced changes in the intracellular calcium concentration were monitored using FDSS 6000 (Hamamatsu Photonics, Japan), a fluorometric imaging system. The cell suspension in resting buffer (HBSS supplemented with 10 mM HEPES, pH 7.4) were pre-incubated with varying concentrations of the test compounds or resting buffer (buffer control) for 15 minutes at room temperature under the dark condition. The cells were automatically added the stimulating solution (HBSS supplemented with MES, final assay buffer pH5.8) by the FDSS 6000.
The monitoring of the changes in the fluorescence signals (λex=340 nm/380 nm, λem=510-520 nm) was initiated at 1 minute prior to the addition of capsaicin solution or acidic buffer and continued for 5 minute.

pIC50: −log10 of the molar value.

T1 sequence (Q8NER1 whole entry): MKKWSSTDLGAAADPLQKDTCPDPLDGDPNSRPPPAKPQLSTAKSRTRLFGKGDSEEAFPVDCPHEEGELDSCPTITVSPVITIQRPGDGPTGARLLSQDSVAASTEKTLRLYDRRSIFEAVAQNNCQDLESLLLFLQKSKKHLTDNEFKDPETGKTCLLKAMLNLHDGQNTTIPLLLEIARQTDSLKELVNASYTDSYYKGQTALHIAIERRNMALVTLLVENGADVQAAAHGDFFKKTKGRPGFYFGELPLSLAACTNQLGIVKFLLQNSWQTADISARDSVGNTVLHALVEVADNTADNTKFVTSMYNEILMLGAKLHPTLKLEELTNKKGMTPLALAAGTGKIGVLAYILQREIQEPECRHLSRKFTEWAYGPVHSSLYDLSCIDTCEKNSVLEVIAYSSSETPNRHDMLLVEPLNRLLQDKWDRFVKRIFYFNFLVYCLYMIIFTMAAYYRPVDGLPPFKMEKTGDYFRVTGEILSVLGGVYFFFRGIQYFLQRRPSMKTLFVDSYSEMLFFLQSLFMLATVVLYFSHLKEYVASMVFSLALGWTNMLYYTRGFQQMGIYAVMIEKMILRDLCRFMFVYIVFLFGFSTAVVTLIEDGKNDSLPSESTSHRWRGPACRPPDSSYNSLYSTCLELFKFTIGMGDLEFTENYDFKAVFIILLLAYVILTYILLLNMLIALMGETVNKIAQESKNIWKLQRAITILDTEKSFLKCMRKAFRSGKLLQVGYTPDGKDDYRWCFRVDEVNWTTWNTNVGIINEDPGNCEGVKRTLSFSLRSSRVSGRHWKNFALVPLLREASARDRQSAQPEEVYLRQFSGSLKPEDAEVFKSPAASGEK

For `Cc1c([C@@H](C)NC(=O)c2ccc3nc(C(C)(C)C(F)(F)F)ccc3c2)cnn1CC(F)(F)F` [Example 6, N-((1R)-1-(5-methyl-1-(2,2,2-trifluoroethyl)-1H-pyrazol-4-yl)ethyl)-2-(2,2,2-trifluoro-1,1-dimethylethyl)quinoline-6-carboxamide], the Kb in experiment [1] (pre-incubation 2 mins) was 1.86 nM. Besides, the pIC50 in experiment [2] is 7.58.
In the case of `C[C@H](NC(=O)c1ccc2nc(C(C)(C)C(F)(F)F)ccc2c1)c1cnn(C)c1Cl` [Example 18], the Kb in experiment [1] (pre-incubation 30 mins) is 5.25 nM. The same molecule showed a pIC50 in experiment [2] of 7.75.
With `Cc1c([C@@H](C)NC(=O)c2ccc3nc(C(C)(C)C(F)(F)F)ccc3c2)cnn1C` [Example 1], the Kb in experiment [1] (pre-incubation 2 mins) is 1.74 nM. In experiment [2], the pIC50 was 7.60.

The term pIC50 denotes the negative decadic logarithm of the IC50, by convention in mol/L. Read a low pIC50 as a large IC50.

Source of the values: patent publication US7964732B2, “Substituted bicyclocarboxyamide compounds” (Pfizer Inc., priority 2006, dated 2011).
